Source: ChEMBL document CHEMBL1201862, “PubChem BioAssay data set” (2004)
One block for each molecule: values may come before it. Active and inactive are the calls of the source.

Key:
[1] = HepG2 cell cytotoxicity, dose response, cytotoxicity control, plate reader, cherry-pick, antagonist series (AID 743416); assay type: functional, cell-based
Caspase-8 = Caspase-8 (Homo sapiens, UniProt Q14790); assay: caspase-8 inhibition counter-screen, dose response, selectivity assay for caspase-6 inhibitor project, biochemical, Z-IETD-R110 fluorescence, cherry-picked samples (AID 743294)
Caspase-8, sequence (Q14790 217-374 limits assumed): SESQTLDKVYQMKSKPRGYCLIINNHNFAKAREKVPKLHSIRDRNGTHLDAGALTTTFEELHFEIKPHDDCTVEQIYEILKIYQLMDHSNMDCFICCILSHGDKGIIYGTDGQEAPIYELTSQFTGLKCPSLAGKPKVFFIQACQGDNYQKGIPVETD
Caspase-8, sequence (Q14790 385-479 limits assumed): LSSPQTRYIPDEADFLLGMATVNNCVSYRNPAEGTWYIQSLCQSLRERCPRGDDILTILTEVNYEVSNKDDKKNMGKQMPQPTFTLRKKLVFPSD

Caspase-9 = Caspase-9 (Homo sapiens, UniProt P55211); assay: caspase-9 enzyme inhibition, dose response, selectivity assay for caspase-6 inhibitor project, biochemical, fluorescence, plate reader, cherry-picked samples (AID 743293)
Caspase-9, sequence (P55211 1-315 limits assumed): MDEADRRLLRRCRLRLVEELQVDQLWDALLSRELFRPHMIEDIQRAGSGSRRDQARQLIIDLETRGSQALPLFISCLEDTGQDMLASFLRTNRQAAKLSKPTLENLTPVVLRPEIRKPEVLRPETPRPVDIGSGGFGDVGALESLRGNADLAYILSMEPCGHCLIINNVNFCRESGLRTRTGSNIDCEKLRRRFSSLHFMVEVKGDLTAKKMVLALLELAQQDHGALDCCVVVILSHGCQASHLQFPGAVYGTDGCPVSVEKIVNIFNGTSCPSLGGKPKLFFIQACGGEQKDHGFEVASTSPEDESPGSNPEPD
Caspase-9, sequence (P55211 331-416 limits assumed): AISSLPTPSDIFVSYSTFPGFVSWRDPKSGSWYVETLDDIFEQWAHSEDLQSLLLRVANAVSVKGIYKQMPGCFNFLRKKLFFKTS

[2] = target: T1, DNA repair and recombination protein RAD54-like (Homo sapiens, UniProt Q92698); assay: inhibitors of human RAD54 branch migration, confirmation, biochemical, fluorescence, cherry-picked samples, dose series (AID 651657); assay type: functional
T1 sequence (Q92698 whole entry): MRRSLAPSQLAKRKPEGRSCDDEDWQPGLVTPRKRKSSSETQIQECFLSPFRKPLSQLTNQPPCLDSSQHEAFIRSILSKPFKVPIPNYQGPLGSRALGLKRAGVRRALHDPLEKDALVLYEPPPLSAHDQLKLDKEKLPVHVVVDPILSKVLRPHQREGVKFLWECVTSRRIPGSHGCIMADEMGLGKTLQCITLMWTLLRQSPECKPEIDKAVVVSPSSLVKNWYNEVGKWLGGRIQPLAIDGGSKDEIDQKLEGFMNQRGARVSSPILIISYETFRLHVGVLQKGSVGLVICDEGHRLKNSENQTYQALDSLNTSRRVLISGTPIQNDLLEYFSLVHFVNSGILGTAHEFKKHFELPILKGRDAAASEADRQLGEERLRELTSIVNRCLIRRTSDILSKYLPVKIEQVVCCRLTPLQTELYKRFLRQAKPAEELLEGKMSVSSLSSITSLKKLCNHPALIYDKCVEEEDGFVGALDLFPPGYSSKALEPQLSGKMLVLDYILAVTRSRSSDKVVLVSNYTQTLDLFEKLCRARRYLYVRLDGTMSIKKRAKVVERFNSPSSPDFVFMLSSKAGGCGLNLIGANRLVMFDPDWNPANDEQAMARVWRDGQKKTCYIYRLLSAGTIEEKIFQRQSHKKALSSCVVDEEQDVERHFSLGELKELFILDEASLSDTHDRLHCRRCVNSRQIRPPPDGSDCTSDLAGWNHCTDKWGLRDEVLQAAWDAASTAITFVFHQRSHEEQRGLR

[3] = HepG2 cell cytotoxicity, dose response, cytotoxicity control for Shn3 inhibitor project, CellTiter-Glo, cherry-picked (AID 624134); assay type: functional, cell-based
Caspase-3 = target: T2, Caspase-3 (Homo sapiens, UniProt P42574); assay type: functional;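 note: Dose-response selectivity test against caspase-3 for candidate inhibitors of sentrin-specific proteases (SENPs)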
T2 sequence (P42574 whole entry): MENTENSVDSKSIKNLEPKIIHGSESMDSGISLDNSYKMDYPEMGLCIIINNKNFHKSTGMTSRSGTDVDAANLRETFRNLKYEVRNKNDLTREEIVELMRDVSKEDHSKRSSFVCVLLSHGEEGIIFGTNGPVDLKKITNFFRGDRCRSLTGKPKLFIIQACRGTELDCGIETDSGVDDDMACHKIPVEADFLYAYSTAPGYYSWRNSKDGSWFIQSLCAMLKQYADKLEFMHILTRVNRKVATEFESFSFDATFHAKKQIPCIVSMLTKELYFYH

[4] = target: T3, Serine/threonine-protein phosphatase (Homo sapiens, UniProt Q9BPW0); assay: PP5 phosphatase inhibitors, dose response, biochemical, fluorescence (AID 2395)
T3 sequence (Q9BPW0 whole entry): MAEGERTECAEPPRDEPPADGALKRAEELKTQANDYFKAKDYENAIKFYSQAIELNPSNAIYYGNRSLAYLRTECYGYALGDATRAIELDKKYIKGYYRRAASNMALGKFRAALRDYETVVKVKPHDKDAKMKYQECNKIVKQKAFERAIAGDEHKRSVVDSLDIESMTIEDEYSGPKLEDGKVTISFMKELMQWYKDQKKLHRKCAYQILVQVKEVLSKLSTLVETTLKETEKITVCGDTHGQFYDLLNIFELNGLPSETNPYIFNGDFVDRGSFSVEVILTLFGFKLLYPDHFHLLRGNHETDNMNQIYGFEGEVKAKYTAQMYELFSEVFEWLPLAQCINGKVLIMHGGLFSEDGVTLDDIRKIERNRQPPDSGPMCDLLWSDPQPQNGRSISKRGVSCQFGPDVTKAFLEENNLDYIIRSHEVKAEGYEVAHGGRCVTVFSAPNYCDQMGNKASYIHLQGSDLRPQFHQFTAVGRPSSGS

[5] = target: Eukaryotic elongation factor 2 kinase (Homo sapiens, UniProt O00418); assay type: functional
[6] = target: RAC-alpha serine/threonine-protein kinase (Homo sapiens, UniProt P31749); assay type: functional;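 note: AKT1 affinity measured as one member of a kinome-wide kinase profiling panel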
RAC-alpha serine/threonine-protein kinase, sequence (P31749 whole entry): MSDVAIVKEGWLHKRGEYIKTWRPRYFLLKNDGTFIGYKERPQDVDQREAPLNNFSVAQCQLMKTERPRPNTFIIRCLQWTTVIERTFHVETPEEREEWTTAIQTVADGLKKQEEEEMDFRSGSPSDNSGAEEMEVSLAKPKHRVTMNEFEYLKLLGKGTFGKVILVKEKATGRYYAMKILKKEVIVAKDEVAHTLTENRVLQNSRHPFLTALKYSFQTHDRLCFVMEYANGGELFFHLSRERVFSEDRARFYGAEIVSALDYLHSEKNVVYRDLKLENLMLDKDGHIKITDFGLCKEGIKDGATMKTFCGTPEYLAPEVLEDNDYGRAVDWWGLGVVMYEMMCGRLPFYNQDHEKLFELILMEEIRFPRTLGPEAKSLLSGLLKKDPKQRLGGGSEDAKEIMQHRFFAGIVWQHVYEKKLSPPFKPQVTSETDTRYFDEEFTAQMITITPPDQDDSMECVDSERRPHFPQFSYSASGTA

[7] = target: Cyclin-dependent kinase 1 (Homo sapiens, UniProt P06493); assay type: functional;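 note: Kinome-wide panel profiling, with the target listed as panel member CDC2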
Cyclin-dependent kinase 1, sequence (P06493 whole entry): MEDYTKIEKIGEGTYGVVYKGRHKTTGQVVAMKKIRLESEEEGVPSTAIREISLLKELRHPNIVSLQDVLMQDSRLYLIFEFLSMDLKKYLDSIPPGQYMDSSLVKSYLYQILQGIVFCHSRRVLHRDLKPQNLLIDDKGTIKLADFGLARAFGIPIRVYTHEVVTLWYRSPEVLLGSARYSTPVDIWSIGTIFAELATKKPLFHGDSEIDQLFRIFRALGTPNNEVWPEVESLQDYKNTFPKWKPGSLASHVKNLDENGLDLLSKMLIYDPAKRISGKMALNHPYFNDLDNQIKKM

[8] = target: Mitogen-activated protein kinase 8 (Homo sapiens, UniProt P45983); assay type: functional;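 note: value comes from one member of a kinome-wide kinase profiling panel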
Mitogen-activated protein kinase 8, sequence (P45983 whole entry): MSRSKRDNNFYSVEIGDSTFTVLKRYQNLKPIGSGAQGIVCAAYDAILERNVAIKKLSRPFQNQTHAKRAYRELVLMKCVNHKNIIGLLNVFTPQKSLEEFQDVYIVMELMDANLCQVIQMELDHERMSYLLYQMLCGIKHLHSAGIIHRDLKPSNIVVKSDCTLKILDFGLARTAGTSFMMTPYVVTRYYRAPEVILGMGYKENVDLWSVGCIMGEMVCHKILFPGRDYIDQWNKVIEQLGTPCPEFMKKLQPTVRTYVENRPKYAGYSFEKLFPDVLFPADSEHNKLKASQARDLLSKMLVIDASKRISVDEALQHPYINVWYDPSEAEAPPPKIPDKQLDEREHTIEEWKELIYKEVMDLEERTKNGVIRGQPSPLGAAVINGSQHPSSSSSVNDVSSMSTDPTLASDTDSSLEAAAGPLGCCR

[9] = target: 3-phosphoinositide-dependent protein kinase 1 (Homo sapiens, UniProt O15530); assay type: functional;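 note: value comes from the Navigating the Kinome panel, PDPK1 member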
[10] = target: Proto-oncogene tyrosine-protein kinase Src (Homo sapiens, UniProt P12931); assay type: functional;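 note: SRC entry within a kinome-wide kinase profiling panel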
Proto-oncogene tyrosine-protein kinase Src, sequence (P12931 2-536 limits assumed): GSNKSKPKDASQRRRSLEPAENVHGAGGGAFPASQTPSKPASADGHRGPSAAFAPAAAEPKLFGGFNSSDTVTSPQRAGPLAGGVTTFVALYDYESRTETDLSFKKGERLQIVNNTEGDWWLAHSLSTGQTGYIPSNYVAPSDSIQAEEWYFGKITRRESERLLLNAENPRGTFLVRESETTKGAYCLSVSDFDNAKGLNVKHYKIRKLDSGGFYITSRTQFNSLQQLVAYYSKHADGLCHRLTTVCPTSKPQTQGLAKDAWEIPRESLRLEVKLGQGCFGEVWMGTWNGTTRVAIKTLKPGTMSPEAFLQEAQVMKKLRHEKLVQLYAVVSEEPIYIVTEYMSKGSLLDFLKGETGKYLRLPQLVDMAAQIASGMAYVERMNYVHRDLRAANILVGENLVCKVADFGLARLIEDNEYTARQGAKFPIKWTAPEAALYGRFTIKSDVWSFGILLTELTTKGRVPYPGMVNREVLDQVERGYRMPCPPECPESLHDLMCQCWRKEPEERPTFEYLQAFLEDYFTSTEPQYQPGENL

[11] = target: Phosphorylase b kinase gamma catalytic chain, liver/testis isoform (Homo sapiens, UniProt P15735); assay type: functional;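 note: PHKG2 measured as one member of a kinome-wide kinase panel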
[12] = target: Testis-specific serine/threonine-protein kinase 1 (Homo sapiens, UniProt Q9BXA7); assay type: functional
Testis-specific serine/threonine-protein kinase 1, sequence (Q9BXA7 whole entry): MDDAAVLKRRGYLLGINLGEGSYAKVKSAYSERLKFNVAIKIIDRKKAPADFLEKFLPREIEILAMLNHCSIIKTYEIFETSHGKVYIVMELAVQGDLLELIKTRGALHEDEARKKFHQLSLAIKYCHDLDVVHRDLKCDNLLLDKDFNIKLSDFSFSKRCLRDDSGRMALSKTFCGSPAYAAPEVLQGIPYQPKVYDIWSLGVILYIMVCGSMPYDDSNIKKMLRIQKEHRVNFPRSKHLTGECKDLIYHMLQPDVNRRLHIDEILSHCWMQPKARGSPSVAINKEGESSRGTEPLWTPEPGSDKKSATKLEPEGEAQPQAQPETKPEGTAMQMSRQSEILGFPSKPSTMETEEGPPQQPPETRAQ

[13] = target: Tyrosine-protein kinase Lyn (Homo sapiens, UniProt P07948); assay type: functional;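 note: lyn as one member of a kinase panel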
[14] = target: High affinity nerve growth factor receptor (Homo sapiens, UniProt P04629); assay type: functional;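 note: NTRK1 tested as one member of a kinome-wide profiling panel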
[15] = target: MAP/microtubule affinity-regulating kinase 3 (Homo sapiens, UniProt P27448); assay type: functional;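 note: MARK3 affinity measured as one member of a kinome panel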
Misshapen-like kinase 1 = Misshapen-like kinase 1 (Homo sapiens, UniProt Q8N4C8); assay type: functional;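 note: kinome panel screen with MINK as the panel member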
Misshapen-like kinase 1, sequence (Q8N4C8 whole entry, canonical isoform): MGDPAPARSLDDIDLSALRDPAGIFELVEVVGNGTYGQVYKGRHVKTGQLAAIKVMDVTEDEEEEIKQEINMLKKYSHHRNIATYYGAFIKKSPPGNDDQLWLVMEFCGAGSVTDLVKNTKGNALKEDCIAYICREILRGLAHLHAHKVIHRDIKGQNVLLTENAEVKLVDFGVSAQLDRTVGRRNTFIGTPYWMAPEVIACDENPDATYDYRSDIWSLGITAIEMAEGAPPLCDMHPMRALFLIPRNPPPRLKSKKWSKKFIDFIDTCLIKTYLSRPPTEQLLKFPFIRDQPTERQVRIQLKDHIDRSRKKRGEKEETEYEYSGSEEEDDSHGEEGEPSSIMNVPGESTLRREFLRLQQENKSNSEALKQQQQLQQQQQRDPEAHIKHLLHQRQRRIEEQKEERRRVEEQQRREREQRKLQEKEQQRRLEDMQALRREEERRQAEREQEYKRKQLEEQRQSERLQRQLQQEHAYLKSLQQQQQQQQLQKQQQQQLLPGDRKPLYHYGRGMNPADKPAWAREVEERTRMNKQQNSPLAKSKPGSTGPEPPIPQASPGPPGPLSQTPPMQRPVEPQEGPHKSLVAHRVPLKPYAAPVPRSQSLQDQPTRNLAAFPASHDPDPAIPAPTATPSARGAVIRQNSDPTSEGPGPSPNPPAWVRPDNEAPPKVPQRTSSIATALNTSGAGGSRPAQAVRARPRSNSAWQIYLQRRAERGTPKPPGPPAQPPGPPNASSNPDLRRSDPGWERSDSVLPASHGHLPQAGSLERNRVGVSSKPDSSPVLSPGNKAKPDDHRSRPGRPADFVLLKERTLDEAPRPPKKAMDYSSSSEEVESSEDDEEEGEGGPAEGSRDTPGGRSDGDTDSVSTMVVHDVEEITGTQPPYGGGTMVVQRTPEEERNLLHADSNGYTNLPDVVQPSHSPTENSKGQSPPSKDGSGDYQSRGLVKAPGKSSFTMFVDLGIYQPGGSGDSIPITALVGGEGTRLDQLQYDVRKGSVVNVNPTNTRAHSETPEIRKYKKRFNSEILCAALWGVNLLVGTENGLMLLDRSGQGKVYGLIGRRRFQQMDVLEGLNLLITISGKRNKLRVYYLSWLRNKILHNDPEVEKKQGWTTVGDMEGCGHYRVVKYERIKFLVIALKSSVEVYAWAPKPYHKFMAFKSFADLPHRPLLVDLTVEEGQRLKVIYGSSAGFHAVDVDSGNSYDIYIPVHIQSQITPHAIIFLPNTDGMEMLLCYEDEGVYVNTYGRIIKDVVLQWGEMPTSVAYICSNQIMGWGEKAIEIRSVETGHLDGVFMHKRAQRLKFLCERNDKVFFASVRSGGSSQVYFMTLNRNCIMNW

[16] = target: Casein kinase I isoform alpha (Homo sapiens, UniProt P48729); assay type: functional
Casein kinase I isoform alpha, sequence (P48729 whole entry, canonical isoform): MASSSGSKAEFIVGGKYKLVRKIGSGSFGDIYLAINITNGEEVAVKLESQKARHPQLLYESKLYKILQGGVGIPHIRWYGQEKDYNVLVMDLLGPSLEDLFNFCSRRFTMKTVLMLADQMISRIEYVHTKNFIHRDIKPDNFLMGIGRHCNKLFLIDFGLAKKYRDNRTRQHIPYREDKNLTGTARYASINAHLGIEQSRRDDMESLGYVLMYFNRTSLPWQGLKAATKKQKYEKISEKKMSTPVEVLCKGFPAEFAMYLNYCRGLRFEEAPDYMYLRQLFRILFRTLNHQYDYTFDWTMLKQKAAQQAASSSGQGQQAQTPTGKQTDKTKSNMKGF

[17] = target: cAMP-dependent protein kinase catalytic subunit PRKX (Homo sapiens, UniProt P51817); assay type: functional
cAMP-dependent protein kinase catalytic subunit PRKX, sequence (P51817 whole entry): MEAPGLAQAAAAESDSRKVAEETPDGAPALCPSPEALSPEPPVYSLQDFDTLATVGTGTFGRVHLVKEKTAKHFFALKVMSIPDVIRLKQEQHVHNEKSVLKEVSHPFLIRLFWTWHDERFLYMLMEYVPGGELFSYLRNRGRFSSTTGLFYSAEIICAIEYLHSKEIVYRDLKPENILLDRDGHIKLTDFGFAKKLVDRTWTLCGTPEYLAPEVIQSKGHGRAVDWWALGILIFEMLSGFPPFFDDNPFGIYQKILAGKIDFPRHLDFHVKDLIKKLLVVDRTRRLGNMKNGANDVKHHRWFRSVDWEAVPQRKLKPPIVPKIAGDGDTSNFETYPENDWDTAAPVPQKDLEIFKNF

Compound: CCCc1nc2c(=O)n(C)c(=O)nc-2n(C)n1
AC50 [1]: 3.39 µM (active)
AC50 (Caspase-8): 0.31 µM (active)
AC50 (Caspase-9): 0.214 µM (active)
AC50 [2]: 1.13 µM (active)
AC50 [3]: 4.96 µM (active)

IC50 (Caspase-3): 30 µM (active)
IC50 [4]: 19.3 µM (not active)
Compound: CC(=O)c1ccc(NC2=C(N3CCOCC3)C(=O)c3ccccc3C2=O)cc1

Ki [5]: > 3.98 µM (inactive)
Ki [6]: > 7.94 µM (inactive)
Ki [7]: > 7.94 µM (inactive)
Ki [8]: > 3.16 µM (inactive)
Ki [9]: > 3.98 µM (inactive)
Ki [10]: 5.01 µM (active)
Ki [11]: > 5.01 µM (inactive)
Ki [12]: 0.2 µM (active)
Ki [13]: > 1.58 µM (inactive)
Ki [14]: 0.398 µM (active)
Ki [15]: > 6.31 µM (inactive)
Ki (Misshapen-like kinase 1): > 7.94 µM (inactive)
Ki [16]: > 6.31 µM (inactive)
Ki [17]: 1 µM (active)
Compound: COc1cc2ncn(-c3cc(OCc4ccccc4C(F)(F)F)c(C(N)=O)s3)c2cc1OC [GW843682X]
